Results on 22 molecules are retold here after patent US7745636B2, “Hepatitis C virus inhibitors” (Bristol-Myers Squibb Company, priority 2006, dated 2010).

Where two headings read alike, the source gives them in different places.

This experiment has as its system HCV 1b-377-neo replicon cells. The experiment is described as follows: HCV Replicon assay, HCV 1b-377-neo replicon cells. In kind it is cell-based, HCV 1b genotype.
Setting [1] is: Hepatitis C virus, Table 2, read-out: Range (EC50 against HCV 1b).
[2] abbreviates: Table 2, read-out: Range (EC50 against HCV 1b).

As usually defined, the EC50 is the concentration needed to bring the measured effect to its halfway point. Consider `COC(=O)N[C@@H](C)C(=O)N(C)[C@@H](C)c1ncc(-c2ccc(-c3ccc(-c4[nH]c([C@@H]5CCCN5C(=O)[C@H](C)NC(=O)OC)nc4C(F)(F)F)cc3)cc2)[nH]1` [Example J42.a, methyl ((1S)-2-((2S)-2-(5-(4′-(2-((1S)-1-((N-(methoxycarbonyl)-L-alanyl)(methyl)amino)ethyl)-1H-imidazol-5-yl)-4-biphenylyl)-4-(trifluoromethyl)-1H-imidazol-2-yl)-1-pyrrolidinyl)-1-methyl-2-oxoethyl)carbamate], for which the EC50 under setting [1] was in the range of 0.001 to 0.999 nM.
Same read-out and setting: under `Cc1cc(-c2cnc([C@@H]3CCCN3C(=O)[C@@H](c3ccccc3)N(C)C)[nH]2)ccc1-c1ccc(-c2cnc([C@@H]3CCCN3C(=O)[C@@H](c3ccccc3)N(C)C)[nH]2)cc1C` [Example 121, (1R,1′R)-2,2′-((2,2′-dimethyl-4,4′-biphenyldiyl)bis(1H-imidazole-5,2-diyl(2S)-2,1-pyrrolidinediyl))bis(N,N-dimethyl-2-oxo-1-phenylethanamine)] stands 0.001 to 0.999 nM; under `COC(=O)N[C@H](C(=O)N1CCC[C@H]1c1ncc(-c2ccc(-c3ccc(-c4cnc([C@@H]5CCCN5C(=O)[C@@H](NC(=NC#N)N(C)C)C(C)C)[nH]4)cc3)cc2)[nH]1)C(C)C` [cj-17, methyl ((1S)-1-(((2S)-2-(5-(4′-(2-((2S)-1-(N-(cyano(dimethyl)carbamimidoyl)-L-valyl)-2-pyrrolidinyl)-1H-imidazol-5-yl)-4-biphenylyl)-1H-imidazol-2-yl)-1-pyrrolidinyl)carbonyl)-2-methylpropyl)carbamate], 0.001 to 0.999 nM.
As to `CC(C)[C@H](NC(=O)OC(C)(C)C)c1ncc(-c2ccc(-c3ccc(-c4cnc([C@@H](NC(=O)OC(C)(C)C)C(C)C)[nH]4)cc3)cc2)[nH]1` [Example 3], the EC50 under setting [2] was in the range of 0.001 to 0.999 nM.
As to `COC(=O)NC(C(=O)Nc1ncc(-c2ccc(-c3ccc(-c4cnc([C@@H]5CCCN5C(O)[C@@H](NC(=O)OC)C(C)C)[nH]4)cc3)cc2)[nH]1)C(C)C` (stereo partly shown) [Example R36], the concentration for a half-maximal effect (EC50) under setting [1] was 0.001 to 0.999 nM.
In the case of `COC(=O)N[C@@H](C(=O)N1CCC[C@H]1c1ncc(-c2ccc(-c3ccc(-c4cnc([C@@H]5CCCN5C(=O)[C@H](NC(=O)OC)c5ccccc5)[nH]4)cc3CN(C)C)cc2)[nH]1)c1ccccc1` [Example M121, dimethyl((2-((dimethylamino)methyl)-4,4′-biphenyldiyl)bis(1H-imidazole-5,2-diyl(2S)-2,1-pyrrolidinediyl((1R)-2-oxo-1-phenyl-2,1-ethanediyl)))biscarbamate], the half-maximal effective concentration (EC50) under setting [1] fell in the range of 100 to 999 nM.
On the same count and under the same terms, under `COC(=O)N[C@@H](C(=O)N[C@@H](C)c1ncc(-c2ccc(-c3ccc(-c4cnc([C@H](C)NC(=O)[C@H](NC(=O)OC)c5ccccc5)[nH]4)cn3)nc2)[nH]1)c1ccccc1` [Example 153c-7, dimethyl (2,2′-bipyridine-5,5′-diylbis(1H-imidazole-5,2-diyl(1S)-1,1-ethanediylimino((1R)-2-oxo-1-phenyl-2,1-ethanediyl))) biscarbamate] stands 1 to 99 nM.
Turning to `CCN(CC)[C@@H](C(=O)N1CCC[C@H]1c1ncc(-c2ccc(-c3ncc(-c4c[nH]c([C@@H]5CCCN5C(=O)[C@@H](NC(=O)OC)C(C)C)n4)cn3)cc2)[nH]1)c1ccccc1` [Example D76, methyl ((1S)-1-(((2S)-2-(5-(2-(4-(2-((2S)-1-((2R)-2-(diethylamino)-2-phenylacetyl)-2-pyrrolidinyl)-1H-imidazol-5-yl)phenyl)-5-pyrimidinyl)-1H-imidazol-2-yl)-1-pyrrolidinyl)carbonyl)-2-methylpropyl) carbamate], the EC50 under setting [1] fell in the range of 0.001 to 0.999 nM.
Take `COC(=O)N[C@H](C(=O)N1CCC[C@H]1c1ncc(-c2cnc(-c3ccc(-c4[nH]c([C@@H]5CCCN5C(=O)[C@@H](NC(=O)OC)C5CC5)nc4C(F)(F)F)cc3)nc2)[nH]1)C1CC1` [Example J49, methyl ((1S)-1-cyclopropyl-2-((2S)-2-(5-(4-(5-(2-((2S)-1-((2S)-2-cyclopropyl-2-((methoxycarbonyl)amino)acetyl)-2-pyrrolidinyl)-1H-imidazol-5-yl)-2-pyrimidinyl)phenyl)-4-(trifluoromethyl)-1H-imidazol-2-yl)-1-pyrrolidinyl)-2-oxoethyl)carbamate]: the 50% effective concentration (EC50) under setting [1] lay within 0.001 to 0.999 nM.
Consider `CC(C)[C@H](NC(=O)OCCF)C(=O)O` [OL-4], for which, under setting [2], the EC50 was 0.001 to 0.999 nM.
As to `Cc1cc(-c2cnc([C@@H]3CCCN3C(=O)[C@@H](c3ccccc3)N(C)C)[nH]2)ccc1-c1ccc(-c2cnc([C@@H]3CCCN3C(=O)[C@@H](c3ccccc3)N(C)C)[nH]2)cn1` [Example 136, (1R)-2-((2S)-2-(5-(6-(4-(2-((2S)-1-((2R)-2-(dimethylamino)-2-phenylacetyl)-2-pyrrolidinyl)-1H-imidazol-5-yl)-2-methylphenyl)-3-pyridinyl)-1H-imidazol-2-yl)-1-pyrrolidinyl)-N,N-dimethyl-2-oxo-1-phenylethanamine], the EC50 under setting [1] fell in the range of 0.001 to 0.999 nM.
Consider `COC(=O)N[C@H](C(=O)N1CCC[C@H]1c1nc(-c2cnc(-c3ccc(-c4cnc([C@@H]5CCCN5C(=O)[C@@H](NC(=O)OC)C(C)C)[nH]4)c(F)c3)nc2)c[nH]1)C(C)C` [Example D68, methyl ((1S)-1-(((2S)-2-(5-(2-fluoro-4-(5-(2-((2S)-1-((2S)-2-((methoxycarbonyl)amino)-3-methylbutanoyl)-2-pyrrolidinyl)-1H-imidazol-5-yl)-2-pyrimidinyl)phenyl)-1H-imidazol-2-yl)-1-pyrrolidinyl)carbonyl)-2-methylpropyl) carbamate], for which the EC50 under setting [1] lay in the range of 0.001 to 0.999 nM.
As to `COC(=O)N[C@@H](C(=O)N1CCC[C@H]1c1ncc(-c2ccc(-c3ccc(-c4cnc([C@@H]5CCCN5C(=O)Cc5ccccc5)[nH]4)cc3)cc2)[nH]1)c1ccccc1` [Example 28, methyl((1R)-2-oxo-1-phenyl-2-((2S)-2-(5-(4′-(2-((2S)-1-(phenylacetyl)-2-pyrrolidinyl)-1H-imidazol-5-yl)-4-biphenylyl)-1H-imidazol-2-yl)-1-pyrrolidinyl)ethyl)carbamate], under setting [1], the concentration for a half-maximal effect (EC50) was in the range of 1 to 99 nM.
On to `COC(=O)NC(C(=O)NC(C)c1ncc(-c2ccc(-c3ccc(-c4cnc(C5CCCN5C(=O)C(NC(=O)OC)C(C)OC)[nH]4)cc3)cc2)[nH]1)C(C)OC` (stereo not shown) [Example R27], for which the concentration giving a half-maximal response (EC50) under setting [2] fell in the range of 0.001 to 0.999 nM.
For the molecule `CCN(CC)[C@@H](C(=O)N1CCC[C@H]1c1ncc(-c2ccc(-c3ncc(-c4c[nH]c([C@@H]5CCCN5C(=O)[C@H](C)NC(=O)OC)n4)cn3)cc2)[nH]1)c1ccccc1` [Example D77, methyl ((1S)-2-((2S)-2-(5-(2-(4-(2-((2S)-1-((2R)-2-(diethylamino)-2-phenylacetyl)-2-pyrrolidinyl)-1H-imidazol-5-yl)phenyl)-5-pyrimidinyl)-1H-imidazol-2-yl)-1-pyrrolidinyl)-1-methyl-2-oxoethyl)carbamate], the concentration for a half-maximal effect (EC50) under setting [1] lay within 0.001 to 0.999 nM.
The same measure, in the same setting: the figure for `COC(=O)N[C@@H](C(=O)N(C)[C@@H](C)c1ncc(-c2ccc(-c3ncc(-c4cnc([C@@H]5CCCN5C(=O)[C@H](NC(=O)OC)c5ccccc5)[nH]4)cn3)cc2)[nH]1)c1ccccc1` [Example 152j-21, methyl ((1R)-2-((2S)-2-(5-(2-(4-(2-((1S)-1-(((2R)-2-((methoxycarbonyl)amino)-2-phenylacetyl)(methyl)amino)ethyl)-1H-imidazol-5-yl)phenyl)-5-pyrimidinyl)-1H-imidazol-2-yl)-1-pyrrolidinyl)-2-oxo-1-phenylethyl)carbamate] is 0.001 to 0.999 nM.
Consider `CN(C)[C@@H](C(=O)N1CCC[C@H]1c1nc(-c2ccc(-c3ccc(-c4cn(C)c([C@@H]5CCCN5C(=O)[C@@H](c5ccccc5)N(C)C)n4)cc3)cc2)cn1C)c1ccccc1` (single isomer, unassigned) [Example 151 isomer 2], for which, under “Table 2, listed as 151 isomer 2, read-out: Range (EC50 against HCV 1b)”, the concentration for a half-maximal effect (EC50) was 100 to 999 nM.
As to `COC(=O)N[C@H](C(=O)N1CCC[C@H]1c1nc(-c2cnc(-c3ccc(-c4cnc([C@@H]5CCCN5C(=O)[C@@H](NC(=O)OC)[C@@H](C)OC)[nH]4)c(F)c3)nc2)c[nH]1)[C@@H](C)OC` [Example D70, methyl ((1S,2R)-1-(((2S)-2-(5-(2-fluoro-4-(5-(2-((2S)-1-(N-(methoxycarbonyl)-O-methyl-L-threonyl)-2-pyrrolidinyl)-1H-imidazol-5-yl)-2-pyrimidinyl)phenyl)-1H-imidazol-2-yl)-1-pyrrolidinyl)carbonyl)-2-methoxypropyl) carbamate], under setting [1], the EC50 lay in the range of 0.001 to 0.999 nM.
On the same count and under the same terms, the figure for `COC(=O)N[C@H](C(=O)N1CCC[C@H]1c1ncc(-c2cnc(-c3ccc(-c4[nH]c([C@@H]5CCCN5C(=O)[C@@H](NC(=O)OC)C(C)C)nc4C(F)(F)F)cc3)nc2)[nH]1)C(C)C` [Example J48, methyl ((1S)-1-(((2S)-2-(5-(2-(4-(2-((2S)-1-((2S)-2-((methoxycarbonyl)amino)-3-methylbutanoyl)-2-pyrrolidinyl)-4-(trifluoromethyl)-1H-imidazol-5-yl)phenyl)-5-pyrimidinyl)-1H-imidazol-2-yl)-1-pyrrolidinyl)carbonyl)-2-methylpropyl) carbamate] is 0.001 to 0.999 nM.
`CNCC(=O)N1CCC[C@H]1c1ncc(-c2ccc(-c3ccc(-c4cnc([C@@H]5CCCN5C(=O)[C@@H](NC(=O)OC)C(C)C)[nH]4)cc3)cc2)[nH]1` [LS20]: under setting [2], the concentration for a half-maximal effect (EC50) was 0.001 to 0.999 nM.
On to `COC(=O)N[C@@H](C(=O)N1CCC[C@H]1c1ncc(-c2ccc(-c3cnc(-c4cnc([C@@H]5CCCN5C(=O)[C@H](NC(=O)OC)c5ccccc5)[nH]4)cn3)cc2)[nH]1)c1ccccc1` [Example 152j-8, methyl ((1R)-2-((2S)-2-(5-(5-(4-(2-((2S)-1-((2R)-2-((methoxycarbonyl)amino)-2-phenylacetyl)-2-pyrrolidinyl)-1H-imidazol-5-yl)phenyl)-2-pyrazinyl)-1H-imidazol-2-yl)-1-pyrrolidinyl)-2-oxo-1-phenylethyl)carbamate], for which the EC50 under setting [1] lay in the range of 0.001 to 0.999 nM.
Same read-out and setting: the figure for `COC(=O)N[C@@H](C(=O)N1CCC[C@H]1c1ncc(-c2ccc(-c3ncc(-c4cnc([C@@H]5CCCN5C(=O)Cc5cccnc5)[nH]4)cn3)cc2)[nH]1)c1ccccc1` [Example 152j-3, methyl ((1R)-2-oxo-1-phenyl-2-((2S)-2-(5-(4-(5-(2-((2S)-1-(3-pyridinylacetyl)-2-pyrrolidinyl)-1H-imidazol-5-yl)-2-pyrimidinyl)phenyl)-1H-imidazol-2-yl)-1-pyrrolidinyl)ethyl)car bamate] is 0.001 to 0.999 nM.
